What was measured:
[1] = tested on: C. striatum, Staph. epidermidis or a 1:1 mixture thereof; conditions: zinc acetate, CIL and either arginine or arginine bicarbonate, pH 4.0 to 8.0, 4 hours, no phenylalanine
Description: The pH of the medium with each of the different zinc salts needed some adjustment, which was done with 1 M HCl or 1 M NaOH depending upon the pH of the stock solutions of each zinc salt employed.

[2] = tested on: C. striatum, Staph. epidermidis and a mixture of the two; assay: Growth (colony counts on BHI agar) during 72 hour incubation with CIL, phenylalanine, zinc carbonate with or without arginine bicarbonate; type: cell-based
Procedure: The bacterial sediments produced upon centrifugation and decantation of the supernatants were stirred and made into a uniform suspension. C. striatum and Staph. epidermidis were mixed with each of C. striatum and Staph. epidermidis at 25% (v/v).
Zinc carbonate was autoclaved and suspended in sterile distilled water. All other stock solutions were sterilized by microbial filtration (Nylon, Sterile filter, pore size […], Fisher Scientific, Fairlawn, N.J. USA).
Difco BHI agar was poured into petri dish plates under sterile conditions and pre-incubated at 37° C. for 24 hours before use to ensure sterility.
The experimental and negative control samples were prepared as follows:
The final concentrations of the bacteria, C. striatum and Staph. epidermidis were each 8.3% (v/v) and the mixture of C. striatum and Staph. epidermidis were 4.15% (v/v) each.
Serial dilution of each of the samples between 10^0 and 10^10 was made. An aliquot of 100 μl from each 10^0 to 10^10 dilution was inoculated onto BHI agar plates. […] Bacterial growth was regularly checked. This was the initial test before the incubation was started.
Four successive diluted samples were selected and grown to proper densities of bacterial colonies on the agar plates; for example, 10^4 to 10^7 were appropriate dilutions for all samples in the instant experiment. Incubation of all samples (experimental and control) were continued at 37° C. for 24, 48 or 72 hours; 100 μl of each sample were taken and chosen at 4 consequent dilutions and inoculated on BHI agar plates for incubation for 24, 48 and 72 hours, respectively. Plating on BHI agar plates and incubation at 37° C. for 24 to 48 hours were carried out and bacterial growth on the BHI agar plates were checked.
The number of bacterial colonies on each plate was assessed. The plates inoculated with the mixture of C. striatum and Staph. epidermidis (i.e., Samples I and IV in the Table of Media compositions above) were counted and the number of colonies of C. striatum and Staph. epidermidis were determined from the photos of the plates.

[3] = tested on: Staph. epidermidis (ATCC 12228); assay: Kirby-Bauer disk diffusion susceptibility test; type: cell-based, Staphylococcus epidermidis; conditions: at either 1% or 5%
Description: (§1) C. striatum and Staph. epidermidis are among the most prevalent bacteria that comprise the human cutaneous microbiota. […] The purpose of this segment was to examine whether formulations arising out of the studies reported in the prior sections that favor the growth and metabolism of Staph. epidermidis as a desirable skin entity that can inhibit the growth of C. striatum, a less desirable entity, and do so when both microorganisms are present initially at the same levels. In this regard, an adaptation of the Kirby-Bauer disk diffusion susceptibility test appeared to be relevant for such determination.
(§2) Here we have grown less than desirable C. striatum and highly desirable Staph. epidermidis, alone and in combination, under a variety of substrate conditions to determine, if the latter micro-organism could be selected over C. striatum and thereby be used as a means of reducing the presence of less desirable odor-producing C. striatum.
(§3) Compositions indicated as possible suppressants of C. striatum and/or enhancers of Staph. epidermidis were based on the prior studies above and for convenience of presentation were categorized as possible active test ingredients and then formulae and mixtures in which they were tested. Accordingly, the total number of compositions tested was eight. Careful attention was paid to sterility throughout in the preparation and handling of the compounds and compositions utilized herein.
(§4) Each of these formulae were prepared at 4 different concentrations: original as in (b), and 1.5, 2.5 and 7.5 times the original concentration. Again, all formulae were prepared under aseptic conditions.
To make compositions 1.5 times the original concentration listed above, formulae 7.5 times the original concentrations were diluted a factor of 5 with sterile distilled water. […]
Each strain was determined as resistant, intermediate, or susceptible to the ingredients, formulae and mixtures tested. After 24 hours of incubation at 37° C., the diameter of the zone of growth inhibition around each disk was measured to the nearest whole mm. […]

C. striatum (ATCC 43751) = assay: Kirby-Bauer disk diffusion susceptibility test; type: cell-based, Corynebacterium striatum; conditions: at either 1% or 5% levels
Description: as §1, §2, §3, §4
To make compositions 1.5 times the original concentration listed above, formulae 7.5 times the original concentrations were diluted a factor of 5 with sterile distilled water. To make compositions 2.5 times the original concentration listed above, formulae 7.5 times the original concentrations were diluted three-fold with sterile distilled water. To summarize: a total of 3 ingredients, 2 formulae and 2 mixtures were tested. A total of 20 disks were prepared for tests of susceptibility to each bacterial sample and these are outlined in Table 5.2 below:
A TB syringe with a 25-27 G sterile needle was used to help break up the remains of any pellets. […] Plating Procedures • Five bacterial samples of C. striatum and Staph. epidermidis were plated on Blood BHI agar and CHROMagar plates, respectively. • 100 μl of each bacterial sample was inoculated on Blood BHI agar plates by using sterile glass bars and a turning table to facilitate each bacterial sample being spread evenly on each of the agar plates. • Each spread bacterial suspension was allowed to dry on inoculated plates for five minutes. • Paper disks were immersed, respectively, with the above 3 ingredients, 2 formulae and 2 mixtures; absorptions were saturated. • Four disks were placed on each plate with sterile forceps. • Incubated plates within 15 minutes after applying the disks to ensure test was under standardized conditions, where diffusion of the ingredients and formulae and bacterial growth commence at approximately the same time. Plates were incubated at 37° C. for 24 hours. Interpretation of Results
Each strain was determined as resistant, intermediate, or susceptible to the ingredients, formulae and mixtures tested. After 24 hours of incubation at 37° C., the diameter of the zone of growth inhibition around each disk was measured to the nearest whole mm. Plates were carefully examined for well-developed colonies within the zone of inhibition.

[4] = tested on: mixture of C. striatum and Staph. epidermidis in the ratio of 1 to 1; assay: Zinc carbonate / arginine bicarbonate on odor and pH, CIL and phenylalanine medium; type: cell-based; conditions: for pH after incubation: arginine bicarbonate with zinc carbonate
[5] = pH and solubility of solutions, suspensions and formulae; type: physicochemical; conditions: 36 mM (zinc acetate and zinc carbonate also 72 mM)
[6] = tested on: pure cultures of microorganisms resident on human axillary skin; conditions: 6.0 mM arginine; Staph. epidermidis, Staph. haemolyticus and P. avidum
Procedure: Pure cultures of the numerically most prominent microorganisms normally resident on human axillary skin (see Table 1) were surveyed for their effects on (i) pH, (ii) Eh, (iii) ability to generate malodor and (iv) ability to generate hydrogen peroxide. Four hour incubation experiments were conducted, in which each of a wide range of carbohydrate and amino acid substrates (see Table 1) were surveyed for malodor production and related changes in pH and Eh thereto.
Each microorganism was recovered from its frozen state at −70° C. and grown at 37° C. in 10 ml of appropriate and respective culture media for a period between 24 and 48 hours (see Table 1). Incubations were carried out to middle and late exponential stages of bacterial growth under the incubation conditions indicated in Table 1. A 1.5 ml inoculum was transferred therefrom to polypropylene bottles containing 150 ml of the initial growth medium. This was then incubated at 37° C. for 24 to 48 hours. Bacteria were harvested by centrifugation (DuPone, Sorvall, Newtown, Conn.) at 10,000 g and 4° C. for 20 min. […] The sediment was then washed with sterile distilled water to remove residual growth medium. This was done by centrifuging the bacterial sediment three times at 1,740 g for 15 min at 4° C.
Each pure culture was pre-incubated at 37° C. at pH 7.0 to exhaust or reduce any stored carbohydrate and other carbon/energy sources acquired during growth in culture.
Both of these electrodes were connected to a second pH meter (pH M26 Radiometer Copenhagen NV, Denmark) and used here as a millivoltmeter. For the Eh measurements, when the Eh electrode was immersed in an incubation mixture, each Eh reading was recorded after allowing several seconds for each reading to stabilize. The Eh value was related to that of the hydrogen electrode by adding to each reading the difference between the E0 value for the Red Rod reference element-mercury and hydrogen electrodes—i.e. 270 my at 25° C.
At each time point, the odor was determined organoleptically by immersing a solid glass rod into each incubation mixture, stirring gently 3 times and then removing and carefully smelling the rod after 5 seconds. The intensity of the odor was assessed on a 0 to 4 numerical scale (0—no odor, 1—mild odor, 2—moderate odor, 3—strong odor, and 4—very strong odor).

Staph. haemolyticus = assay: Arginolysis: pH during incubation with arginine; type: cell-based, Staphylococcus haemolyticus; conditions: 6.0 mM arginine, 4 hours
Procedure: (§5) Each microorganism was recovered from its frozen state at −70° C. and grown at 37° C. in 10 ml of appropriate and respective culture media for a period between 24 and 48 hours (see Table 1). Incubations were carried out to middle and late exponential stages of bacterial growth under the incubation conditions indicated in Table 1. A 1.5 ml inoculum was transferred therefrom to polypropylene bottles containing 150 ml of the initial growth medium. This was then incubated at 37° C. for 24 to 48 hours. Bacteria were harvested by centrifugation (DuPone, Sorvall, Newtown, Conn.) at 10,000 g and 4° C. for 20 min. The volume of bacterial pellet obtained was between about 2.5 and 3.5 ml. The sediment was then washed with sterile distilled water to remove residual growth medium. This was done by centrifuging the bacterial sediment three times at 1,740 g for 15 min at 4° C. […]

P. avidum = assay: Arginolysis: pH during incubation with arginine; type: cell-based, Propionibacterium avidum; conditions: 6.0 mM arginine
Procedure: as §5

Staph. epidermidis = assay: Arginolysis: pH during incubation with arginine; type: cell-based, Staphylococcus epidermidis; conditions: 6.0 mM arginine
Procedure: as §5

| SMILES | Sulfurous odor and Eh [1] | Decrease of number of colonies ([2]; 12 mM zinc carbonate, CIL, phenylalanine, with versus without 12 mM arginine bicarbonate, 37° C., 72 hours) | Colonies found in the mixture ([2]; media with arginine bicarbonate, 48 and 72 hours) | Staph. epidermidis share of colonies in the mixture ([2]; media with arginine bicarbonate, 24 hours, 65% at 0 hours) | Sensitivity of Staph. epidermidis (in words) [3] | Sensitivity of C. striatum (in words) (C. striatum (ATCC 43751)) | pH maintained ([4]; 12.0 mM arginine bicarbonate, CIL and phenylalanine, 37° C., 4 hours) | pH after incubation ([4]; medium originally at pH 6.0) | pH after incubation ([4]; medium originally at pH 7.0) | pH after incubation ([4]; medium originally at pH 8.0) | pH of stock solution in de-ionized water [5] | Odor during arginolysis [6] | pH reached during arginolysis (Staph. haemolyticus) | pH rise above the level with Staph. epidermidis (P. avidum) | pH of the incubation mixture (Staph. epidermidis; end of the 4 hours of incubation) | pH of the incubation mixture (Staph. epidermidis; start pH 7.0, within the first 15 min) |
| --- | --- | --- | --- | --- | --- | --- | --- | --- | --- | --- | --- | --- | --- | --- | --- | --- |
| N=C(N)NCCC[C@H](N)C(=O)O.O=C(O)O [Arginine bicarbonate, arginine bicarbonate] | No sulfurous odor nor corresponding decrease in the Eh | without arginine bicarbonate decreased sooner | Only colonies of Staph. epidermidis were discovered | 90% | neither C. striatum nor Staph. epidermidis was susceptible | neither C. striatum nor Staph. epidermidis was susceptible | about 8.0 | 6.8 | 7.8 | 8.0 | – | – | – | – | – | – |
| [Cl-].[Cl-].[Zn+2] [Zinc chloride] | – | – | – | – | – | – | – | – | – | – | 6.7 | – | – | – | – | – |
| N=C(N)NCCC[C@H](N)C(=O)O [arginine] | No sulfurous odor nor corresponding decrease in the Eh | – | – | – | – | – | – | – | – | – | – | No odor of significance | 8.2 | about 0.3 pH units | 7.7 | 7.4 |

Source: patent US9555057B2, “Compositions and methods for reducing cutaneous microbiome malodor” (The Research Foundation for The State University of New York, priority 2014, dated 2017)
